Data: ChEMBL document CHEMBL1201862, “PubChem BioAssay data set” (2004)
Active and inactive are the calls of the source.

Key:
Cytochrome P450 3A4 = Cytochrome P450 3A4 (Homo sapiens, UniProt P08684); conditions: Potency;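 note: confirmatory qHTS run detecting inhibitors and substrates of CYP3A4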
[1] = target: Voltage-gated inwardly rectifying potassium channel KCNH2 (Homo sapiens, UniProt Q12809); conditions: Potency;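 note: confirmatory quantitative high-throughput screen measuring inhibition of hERG channel activity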
Chain of Voltage-gated inwardly rectifying potassium channel KCNH2 (Q12809 whole entry): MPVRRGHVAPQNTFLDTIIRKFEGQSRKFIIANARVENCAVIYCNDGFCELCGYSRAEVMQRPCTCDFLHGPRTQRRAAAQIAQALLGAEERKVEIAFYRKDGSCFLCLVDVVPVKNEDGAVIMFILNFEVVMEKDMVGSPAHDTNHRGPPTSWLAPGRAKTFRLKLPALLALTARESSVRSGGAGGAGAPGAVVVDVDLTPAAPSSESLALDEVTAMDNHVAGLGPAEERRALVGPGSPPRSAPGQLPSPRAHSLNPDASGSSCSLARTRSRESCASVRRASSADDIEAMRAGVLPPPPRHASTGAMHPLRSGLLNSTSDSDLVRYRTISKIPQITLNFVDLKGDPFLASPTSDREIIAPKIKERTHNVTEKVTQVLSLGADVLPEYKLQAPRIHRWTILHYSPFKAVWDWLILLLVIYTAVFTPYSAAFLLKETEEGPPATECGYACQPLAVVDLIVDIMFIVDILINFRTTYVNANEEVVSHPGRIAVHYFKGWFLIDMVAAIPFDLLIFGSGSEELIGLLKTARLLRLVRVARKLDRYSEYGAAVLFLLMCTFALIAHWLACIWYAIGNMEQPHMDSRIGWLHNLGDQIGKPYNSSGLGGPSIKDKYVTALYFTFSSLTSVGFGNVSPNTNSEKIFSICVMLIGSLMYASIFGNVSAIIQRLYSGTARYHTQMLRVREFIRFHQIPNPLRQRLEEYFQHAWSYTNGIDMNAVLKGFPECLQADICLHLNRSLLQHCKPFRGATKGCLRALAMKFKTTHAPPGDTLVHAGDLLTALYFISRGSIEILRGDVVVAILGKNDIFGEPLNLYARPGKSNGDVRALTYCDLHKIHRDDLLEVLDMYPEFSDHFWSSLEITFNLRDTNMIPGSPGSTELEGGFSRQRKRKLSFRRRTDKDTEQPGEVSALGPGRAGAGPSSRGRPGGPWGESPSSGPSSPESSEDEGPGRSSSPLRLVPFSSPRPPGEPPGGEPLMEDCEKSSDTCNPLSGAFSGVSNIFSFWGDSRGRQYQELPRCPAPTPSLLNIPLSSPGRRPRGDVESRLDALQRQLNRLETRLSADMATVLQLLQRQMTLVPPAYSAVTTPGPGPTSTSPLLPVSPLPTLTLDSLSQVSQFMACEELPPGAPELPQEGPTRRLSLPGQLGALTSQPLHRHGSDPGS

Beta Lactamase = Beta Lactamase (Pseudomonas aeruginosa, UniProt Q932Y6); test: beta-lactamase reporter inhibitor potency, dose response, artefact control for TLR9-MyD88 binding inhibitor project, BLA reporter cells, FRET fluorescence (AID 588341); type: cell-based;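 note: cell based assay in CHO-K1 cells stably expressing beta-lactamase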
Chain of Beta Lactamase (Q932Y6 whole entry): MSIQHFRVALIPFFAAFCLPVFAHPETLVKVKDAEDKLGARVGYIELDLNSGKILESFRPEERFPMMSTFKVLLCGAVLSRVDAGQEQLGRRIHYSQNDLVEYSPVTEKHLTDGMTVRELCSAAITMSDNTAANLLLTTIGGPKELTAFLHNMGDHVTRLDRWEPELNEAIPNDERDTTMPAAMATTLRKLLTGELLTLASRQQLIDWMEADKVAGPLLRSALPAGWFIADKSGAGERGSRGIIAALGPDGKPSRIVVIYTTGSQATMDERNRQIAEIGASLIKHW

BJ [2] = test: cytotoxicity toward BJ-TERT fibroblasts, dose response, cell-based, RAS-independent, luminescence (AID 1933); type: functional; conditions: Homo sapiens
BJ [3] = test: cells; type: functional, cell-based; conditions: Homo sapiens
[4] = target: T1, Sphingosine 1-phosphate receptor 4 (Homo sapiens, UniProt O95977); test: Late stage fluorescence dose response cell-based screening assay for antagonists of the Sphingosine 1-Phosphate Receptor 4 (S1P4). [Related pubchem assays: 1524 (Confirmation screen (S1P4 antagonists).), 1510 (Primary screen (S1P4 antagonists).), 1853 (Summary AID (S1P4 antagonists).), 1692 (Dose response screen (S1P4 antagonists).)]; type: functional
T1 sequence (O95977 whole entry): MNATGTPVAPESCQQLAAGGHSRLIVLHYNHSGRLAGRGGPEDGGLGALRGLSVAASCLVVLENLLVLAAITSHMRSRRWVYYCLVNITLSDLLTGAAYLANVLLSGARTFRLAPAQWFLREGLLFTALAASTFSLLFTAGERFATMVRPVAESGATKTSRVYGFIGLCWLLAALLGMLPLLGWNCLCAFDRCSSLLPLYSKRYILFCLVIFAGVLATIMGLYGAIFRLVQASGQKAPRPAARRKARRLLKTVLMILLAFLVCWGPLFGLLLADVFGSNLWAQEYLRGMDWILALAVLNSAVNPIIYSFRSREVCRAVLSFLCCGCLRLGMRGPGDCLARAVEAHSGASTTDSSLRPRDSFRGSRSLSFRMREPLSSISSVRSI

Beta-galactosidase = Beta-galactosidase (Escherichia coli, UniProt Q8VNN2); test: PubChem AID 485352; type: functional
Chain of Beta-galactosidase (Q8VNN2 whole entry): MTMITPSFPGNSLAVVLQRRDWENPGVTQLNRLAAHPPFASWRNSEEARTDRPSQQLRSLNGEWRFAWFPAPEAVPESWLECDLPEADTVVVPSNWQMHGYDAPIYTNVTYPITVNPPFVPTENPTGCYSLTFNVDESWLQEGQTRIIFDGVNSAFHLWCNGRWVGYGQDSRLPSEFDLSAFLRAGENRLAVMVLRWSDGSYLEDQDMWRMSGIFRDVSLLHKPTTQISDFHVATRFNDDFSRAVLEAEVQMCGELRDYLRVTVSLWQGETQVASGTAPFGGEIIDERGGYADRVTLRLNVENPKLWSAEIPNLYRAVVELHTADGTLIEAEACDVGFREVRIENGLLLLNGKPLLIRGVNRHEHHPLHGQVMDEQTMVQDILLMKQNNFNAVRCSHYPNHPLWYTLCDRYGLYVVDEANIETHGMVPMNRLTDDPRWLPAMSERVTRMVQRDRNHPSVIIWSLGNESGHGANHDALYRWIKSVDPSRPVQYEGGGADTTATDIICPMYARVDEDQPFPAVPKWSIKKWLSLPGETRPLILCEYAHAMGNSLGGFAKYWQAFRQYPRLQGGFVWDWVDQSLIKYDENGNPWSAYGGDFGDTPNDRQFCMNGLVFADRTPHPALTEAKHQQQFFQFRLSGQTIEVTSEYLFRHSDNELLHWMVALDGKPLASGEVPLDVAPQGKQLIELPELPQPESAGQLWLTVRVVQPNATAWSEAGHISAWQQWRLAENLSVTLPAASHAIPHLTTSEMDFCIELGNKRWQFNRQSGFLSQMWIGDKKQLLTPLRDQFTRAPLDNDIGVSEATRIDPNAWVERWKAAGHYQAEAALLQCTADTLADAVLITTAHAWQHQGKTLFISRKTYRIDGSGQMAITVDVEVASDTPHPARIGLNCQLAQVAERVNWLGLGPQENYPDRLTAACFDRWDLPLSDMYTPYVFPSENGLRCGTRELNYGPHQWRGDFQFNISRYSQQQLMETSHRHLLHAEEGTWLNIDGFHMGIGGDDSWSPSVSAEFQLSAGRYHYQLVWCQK

[5] = cytotoxicity toward DRD oncogenic fibroblasts, dose response, cell-based, non-viral oncogenic, luminescence (AID 1934); type: functional; conditions: Homo sapiens
[6] = target: T1, Sphingosine 1-phosphate receptor 4; test: Fluorescence dose response cell-based high throughput screening assay for antagonists of the Sphingosine 1-Phosphate Receptor 4 (S1P4). [Related pubchem assays: 1524 (Confirmation in triplicates.), 1510 (Primary screen.)]; type: functional
[7] = target: T2, Heat shock factor protein 1 (Mus musculus, UniProt P38532); test: inhibition of MG132-induced HSE-luciferase signal, confirmation, cell-based, NIH3T3, luminescence, dose retest (AID 2382); type: functional;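 note: NIH3T3 fibroblasts with HSF1-driven luciferase reporter stressed by proteasome inhibitor MG132; luminescence from HSF1-driven luciferase expression after 8 hours of MG132 stress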
T2 sequence (P38532 whole entry): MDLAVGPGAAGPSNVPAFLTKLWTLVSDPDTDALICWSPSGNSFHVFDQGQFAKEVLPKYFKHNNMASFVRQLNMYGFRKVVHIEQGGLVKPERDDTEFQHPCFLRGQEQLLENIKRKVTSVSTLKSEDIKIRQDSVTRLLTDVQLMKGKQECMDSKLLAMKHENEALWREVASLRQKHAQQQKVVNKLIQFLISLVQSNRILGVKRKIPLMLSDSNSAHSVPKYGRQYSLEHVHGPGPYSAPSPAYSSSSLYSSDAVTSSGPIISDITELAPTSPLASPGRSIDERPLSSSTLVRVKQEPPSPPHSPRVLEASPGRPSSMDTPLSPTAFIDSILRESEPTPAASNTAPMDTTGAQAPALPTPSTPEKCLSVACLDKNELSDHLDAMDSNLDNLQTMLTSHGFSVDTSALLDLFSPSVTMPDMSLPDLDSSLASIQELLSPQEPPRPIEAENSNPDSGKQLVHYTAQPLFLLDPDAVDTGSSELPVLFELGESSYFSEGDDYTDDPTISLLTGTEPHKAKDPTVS

[8] = target: Sphingosine 1-phosphate receptor 1 (Homo sapiens, UniProt P21453); type: functional;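 note: Tango beta-arrestin reporter U2OS cells stimulated with S1P near its EC80; inhibitor potency meaning antagonism of receptor activation by the natural agonist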
Chain of Sphingosine 1-phosphate receptor 1 (P21453 whole entry, the tested form may be a part): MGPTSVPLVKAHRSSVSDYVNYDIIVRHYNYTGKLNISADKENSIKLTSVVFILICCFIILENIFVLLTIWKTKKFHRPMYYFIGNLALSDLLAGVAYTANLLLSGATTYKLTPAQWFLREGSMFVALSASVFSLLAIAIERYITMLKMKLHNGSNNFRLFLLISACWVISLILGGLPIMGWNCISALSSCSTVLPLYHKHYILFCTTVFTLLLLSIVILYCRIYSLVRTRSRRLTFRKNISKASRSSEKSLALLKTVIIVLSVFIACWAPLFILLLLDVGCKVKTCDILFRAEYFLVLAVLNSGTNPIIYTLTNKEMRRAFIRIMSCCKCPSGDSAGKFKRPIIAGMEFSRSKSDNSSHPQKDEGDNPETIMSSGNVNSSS

CHO = test: cytotoxicity in TLR9-MyD88 CHO cells, dose response, cytotoxicity control for TLR9-MyD88 binding inhibitor project, cell-based, luminescence (AID 588339); type: functional, hamster; conditions: Cricetulus griseus;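 note: CHO cells stably coexpressing TLR9 and MyD88 fusions from primary screen; compound exposure lasted 48 hours before viability readout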
INS1 = test: beta cell apoptosis inhibitors, cytokine rescue, dose response, luminescence, retest (AID 449756); type: functional, cell-based; conditions: Rattus norvegicus;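 note: cell death triggered by IL-1 beta plus TNF-alpha plus IFN-gamma mixture; protective hits raise ATP signal compared with cytokine alone wells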
BJ [9] = test: cytotoxicity toward BJ-TERT-LT-ST fibroblasts, dose response, cell-based, RAS-independent, luminescence (AID 1935); type: functional; conditions: Homo sapiens;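 note: BJ fibroblasts immortalized with TERT plus LT and ST oncogenes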
[10] = target: Type-1 angiotensin II receptor (Homo sapiens, UniProt P30556); test: AT1 receptor antagonists, dose response, selectivity assay for APJ receptor antagonist project, cell-based, uHTS hits (AID 463214); type: functional;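 note: antagonist potency against angiotensin II stimulated AT1 response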
Chain of Type-1 angiotensin II receptor (P30556 whole entry): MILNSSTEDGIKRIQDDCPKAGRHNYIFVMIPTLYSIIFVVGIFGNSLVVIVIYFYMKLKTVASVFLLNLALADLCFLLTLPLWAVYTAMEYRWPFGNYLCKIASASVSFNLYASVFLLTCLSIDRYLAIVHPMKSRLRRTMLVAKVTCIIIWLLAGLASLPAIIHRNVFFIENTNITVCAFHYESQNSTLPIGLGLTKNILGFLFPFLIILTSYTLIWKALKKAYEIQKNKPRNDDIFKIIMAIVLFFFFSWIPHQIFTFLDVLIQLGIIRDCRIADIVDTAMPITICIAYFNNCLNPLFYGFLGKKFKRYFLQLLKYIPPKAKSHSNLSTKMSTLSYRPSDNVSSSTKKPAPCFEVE

[11] = target: Heat shock protein HSP 90-alpha (Homo sapiens, UniProt P07900); type: functional, organism-based

Chain of Cytochrome P450 3A4 (P08684 whole entry): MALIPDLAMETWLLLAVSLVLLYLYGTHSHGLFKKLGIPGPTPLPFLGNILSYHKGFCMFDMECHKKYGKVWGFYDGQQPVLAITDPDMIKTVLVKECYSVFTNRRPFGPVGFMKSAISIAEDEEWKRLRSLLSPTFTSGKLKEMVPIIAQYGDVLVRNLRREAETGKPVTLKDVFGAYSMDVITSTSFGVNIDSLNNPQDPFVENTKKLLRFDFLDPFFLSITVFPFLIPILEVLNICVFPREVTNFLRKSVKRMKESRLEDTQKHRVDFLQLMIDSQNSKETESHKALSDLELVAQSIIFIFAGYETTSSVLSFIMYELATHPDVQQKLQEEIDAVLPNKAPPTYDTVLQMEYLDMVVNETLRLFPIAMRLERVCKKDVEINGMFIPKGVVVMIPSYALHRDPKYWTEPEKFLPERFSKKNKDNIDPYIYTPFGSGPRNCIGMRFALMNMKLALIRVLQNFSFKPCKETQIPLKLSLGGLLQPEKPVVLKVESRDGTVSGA

In the case of Clc1ccc(C(Cl)(Cl)Cl)c(Cl)c1, the AC50 (Cytochrome P450 3A4) is reported as 31.6 µM (inconclusive) and the AC50 [1] is reported as 20 µM (inconclusive).
For O=[N+]([O-])c1cnc(Sc2ccncn2)s1, the IC50 (Beta Lactamase) was > 49.7 µM (inactive), the EC50 (BJ [2]) was 2.21 µM (active) and the EC50 (BJ [3]) was 8.38 µM (active). For the same compound, the IC50 [4] was 1.72 µM (not active), the EC50 (Beta-galactosidase) was > 40 µM (inactive) and the EC50 [5] was 5.64 µM (active). For the same compound, the IC50 [6] was 0.86 µM (active), the EC50 [7] was 4.12 µM (active) and the IC50 [8] was 15 µM (not active). The IC50 (CHO) was 1.29 µM (active), the AC50 (INS1) was 4.35 µM (active) and the EC50 (BJ [9]) was 4.97 µM (inconclusive). The IC50 [10] was 5.67 µM (active) and the AC50 [11] was 1.49 µM (active).
